Results reported in patent US20240000758A1, “ELEVATION OF MITOCHONDRIAL BIOGENESIS AND FUNCTION BY INHIBITION OF PROSTAGLANDIN DEGRADING ENZYME 15-PGDH” (The Board of Trustees of the Leland Stanford Junior …, priority 2020, published 2024).
Entries after “also recorded” stand apart in the source; their conditions may differ. Blank lines part the entries; values can stand above or below the molecule they belong to.

Tests used:
[1] = tested on: cyclic AMP response element binding protein (CREB); assay: immunoblots of muscle lysates for CREB activation after PGE2 i.m. injection; type: in vivo, C57BL/6 mice; details: young (3 mo.) mice, PGE2 i.m., 0, 30 or 60 minutes; FIG. 2A
Protocol: FIGS. 2A-2C. PGE2 treatment leads to activation of CREB in muscles and 15-PGDH inhibition leads to increased mitochondrial biogenesis and function in aged muscles. (FIG. 2A) Immunoblots of muscle lysates from young (3 mo.) C57BL/6 mice injected with PGE2 i.m. after 0, 30 or 60 minutes. (FIG. 2B) Quantification of immunoblot in (FIG. 2A) (n=3 mice per timepoint). (FIG. 2B) Representative images of intermyofibrillar (IMF) mitochondria from transmission electron micrographs (TEM) of longitudinal sections of EDL muscles of young, aged vehicle and aged SW (n=3 mice per condition; total mitochondria quantified, n=1,066 young, n=1,350 aged vehicle and n=1,371 aged SW). Different magnifications are as shown: 1,500×, 3,000× and 10,000× with […] respectively: 5 μm, 2 μm and 500 nm. (FIG. 2C) Citrate synthase activity of Quadriceps (Quad) muscles (n=13 aged vehicle and n=8 aged SW). *P<0.05, **P<0.01. ANOVA test with Fisher's LSD for multiple comparisons (FIG. 2B); unpaired t-test (FIG. 2C). Means±s.e.m.
To identify downstream signaling pathways through which 15-PGDH inhibition exerts its effects on aged muscles, we performed an unbiased transcriptomic analysis of aged muscles treated with vehicle or SW033291 (SW). […]

aged muscles [2] = assay: muscle atrophy (cross sectional area, muscle mass) in aged mice; type: in vivo; details: aged treated with SW compared to vehicle controls
Text: In addition, the morphology of the mitochondria improved. The shift in IMF mitochondrial area from compact and round in young to a larger size with more disorganized morphology in aged tissues was clearly evident, in agreement with reports by others (J. P. Leduc-Gaudet et al., Mitochondrial morphology is altered in atrophied skeletal muscle of aged mice. Oncotarget 6, 17923-17937 (2015); V. Romanello, M. Sandri, Mitochondrial Quality Control and Muscle Mass Maintenance. Front Physiol 6, 422 (2015)) (FIGS. 1D and 2B).

succinate dehydrogenase = succinate dehydrogenase (SDH) staining of TA cross-sections; type: in vivo, mice; details: SW treated aged muscle; FIG. 1F
Text: (§1) FIGS. 1A-1H. Boost in mitochondrial biogenesis and function is triggered by 15-PGDH inhibition in aged muscles. (FIG. 1A) Heatmap of mitochondrial genes. (FIG. 1B) Expression level of Pgc1α by qPCR (n=4 young, n=4 aged veh, n=3 aged SW033291 (SW)). (FIG. 1C) Relative quantification of mitochondrial DNA to nuclear DNA (n=4 per group). (FIG. 1D) Representative images and quantifications of intermyofibrillar (IMF) mitochondria numbers, their size, and myofibrillar width from transmission electron micrographs (TEM) of longitudinal sections of EDL muscles of young, aged vehicle and aged SW (n=3 mice per condition; total mitochondria quantified, n=1,066 young, n=1,350 aged vehicle and n=1,371 aged SW). Scale bar=2 μm. (FIG. 1E) Citrate synthase activity of Gastrocnemius muscles (n=3 young, n=4 aged vehicle and n=4 aged SW). (FIG. 1F) Representative TA cross-section stained for succinate dehydrogenase (SDH) (left). Quantification of SDH mean average intensity per fiber (n=4 mice per condition). (FIG. 1G) Representative images of mitochondrial membrane potential (TMRM staining) in isolated EDL myofibers from young, aged vehicle and SW treated mice (n=4 mice per condition; total number of fibers n=52 young, n=139 aged vehicle and n=89 aged SW). […] Quantification (right) (n=3 aged veh and SW). *P<0.05, **P<0.01, ***P<0.001, ****P<0.0001. […]

[3] = tested on: intermyofibrillar (IMF) mitochondria of EDL muscles; assay: transmission electron microscopy (TEM) of Extensor digitorum longus (EDL) muscles; type: in vivo, mice
Text: FIGS. 1A-1H. Boost in mitochondrial biogenesis and function is triggered by 15-PGDH inhibition in aged muscles. (FIG. 1A) Heatmap of mitochondrial genes. (FIG. 1B) Expression level of Pgc1α by qPCR (n=4 young, n=4 aged veh, n=3 aged SW033291 (SW)). (FIG. 1C) Relative quantification of mitochondrial DNA to nuclear DNA (n=4 per group). (FIG. 1D) Representative images and quantifications of intermyofibrillar (IMF) mitochondria numbers, their size, and myofibrillar width from transmission electron micrographs (TEM) of longitudinal sections of EDL muscles of young, aged vehicle and aged SW (n=3 mice per condition; total mitochondria quantified, n=1,066 young, n=1,350 aged vehicle and n=1,371 aged SW). Scale bar=2 μm. (FIG. 1E) Citrate synthase activity of Gastrocnemius muscles (n=3 young, n=4 aged vehicle and n=4 aged SW). (FIG. 1F) Representative TA cross-section stained for succinate dehydrogenase (SDH) (left). Quantification of SDH mean average intensity per fiber (n=4 mice per condition). (FIG. 1G) Representative images of mitochondrial membrane potential (TMRM staining) in isolated EDL myofibers from young, aged vehicle and SW treated mice (n=4 mice per condition; total number of fibers n=52 young, n=139 aged vehicle and n=89 aged SW). (FIG. 1H) Immunoblots of muscle lysates from: aged vehicle and SW treated mice together with colchicine, young mice without treatment, young mice treated with colchicine and young mice fasted and treated with colchicine. Quantification (right) (n=3 aged veh and SW). *P<0.05, **P<0.01, ***P<0.001, ****P<0.0001. ANOVA test with Tukey's test (FIG. 1D) or Fisher's LSD (FIGS. 1A, 1F, 1G) for multiple comparisons; Unpaired t-test (FIGS. 1C, 1E, 1H). Means±s.e.m.
(§2) FIGS. 2A-2C. […] (FIG. 2B) Quantification of immunoblot in (FIG. 2A) (n=3 mice per timepoint). (FIG. 2B) Representative images of intermyofibrillar (IMF) mitochondria from transmission electron micrographs (TEM) of longitudinal sections of EDL muscles of young, aged vehicle and aged SW (n=3 mice per condition; total mitochondria quantified, n=1,066 young, n=1,350 aged vehicle and n=1,371 aged SW). […]

aged muscles [4] = assay: unbiased transcriptomic analysis of aged muscles treated with vehicle or SW033291; type: in vivo, mice; details: FIG. 1A
Text: as §1

aged muscles [5] = assay: relative quantification of mitochondrial DNA to nuclear DNA in aged muscles; type: in vivo, mice; details: SW treatment of aged muscles; FIG. 1C
Text: as §1

[6] = tested on: peroxisome proliferator-activated receptor gamma coactivator 1-alpha (Pgc1α); assay: Pgc1α mRNA level by qPCR in aged muscles; type: in vivo, mice; details: SW vs vehicle and young, FIG. 1B
Text: as §1

p62 = assay: autophagy flux, western blot of p62 upon colchicine treatment; type: in vivo; details: muscles of aged mice treated with SW compared to controls; FIG. 1H
Text: as §1

citrate synthase = citrate synthase activity in isolated mitochondria of aged muscles; type: in vivo, mice; details: SW-treated aged muscles compared to controls, FIGS. 1E and 2C
Text: as §1, with “(FIG. 1F) Representative TA cross-section stained for succinate dehydrogenase (SDH) (left).” left out, “condition).” for “condition). (FIG. 1G) Representative images of mitochondrial membrane potential (TMRM staining) in isolated EDL myofibers from young, aged vehicle and SW treated mice (n=4 mice per condition; total number of fibers n=52 young, n=139 aged vehicle and n=89 aged SW).”
as §2

[7] = tested on: myofibers isolated from EDL muscles; assay: mitochondrial membrane potential (TMRM staining) in isolated EDL myofibers; type: in vivo; details: myofibers from EDL muscles of SW treated aged mice compared to controls; FIG. 1G
Text: as §1

activation of CREB in skeletal muscles [1]: activates
SMILES: CCCCC[C@H](O)/C=C/[C@H]1[C@H](O)CC(=O)[C@@H]1C/C=C\CCCC(=O)O [PGE2, Prostaglandin E2]

SMILES: CCCC[S+]([O-])c1sc2nc(-c3cccs3)cc(-c3ccccc3)c2c1N (stereo not shown) [SW, 2-(butylsulfinyl)-4-phenyl-6-(thiophen-2-yl)thieno[2,3-b]pyridin-3-amine]
muscle atrophy (aged muscles [2]): attenuation of muscle atrophy
succinate dehydrogenase activity (succinate dehydrogenase): increased; also recorded: restored to young levels
number of intermyofibrillar (IMF) mitochondria ([3]; EDL muscles of aged mice after SW treatment, FIGS. 1D and 2B): increase
mitochondrial morphology ([3]; aged EDL muscles, one month of SW treatment, FIG. 1D): restored to a compact mitochondrial morphology resembling that seen in young
myofibril width ([3]; aged treated with SW compared to vehicle controls, FIGS. 1D and 2B): increase
components of mitochondria complexes I, II, IV and V of the electron transport chain (transcriptome) (aged muscles [4]; SW-treated aged muscles): markedly increased
change in aged muscle tissue transcriptome: mitochondrial pathways (oxidative phosphorylation, ATP synthesis) (aged muscles [4]; aged muscles, SW vs vehicle): strong enrichment for mitochondrial pathways
mitochondrial DNA content relative to nuclear DNA content (aged muscles [5]): increased
mRNA level of Pgc1α [6]: restored to that seen in young muscles
autophagy flux (p62 upon colchicine treatment) (p62): increased
citrate synthase activity (citrate synthase): significantly increased; also recorded: restored to young levels
mitochondrial membrane potential [7]: increase; also recorded: restored to young levels
